Measured values: paper PMC11062899, “De novo development of small cyclic peptides that are orally bioavailable” (Nature Chemical Biology, 2023)
Several values for one entry are separate records, joined by “and”; a condition that tells them apart may be missing. Identical values can stand only once.

Tests used:
porcine pepsin = target: T1, porcine pepsin (Sus scrofa, UniProt P00791); assay: Peptide stability in simulated gastric fluid (SGF); format: in vitro ADME; settings: for SGF stability, Residual peptide Average / SGF stability, Residual peptide: after 8 h vs 0 h (TIC); for SGF stability, Residual peptide Average: average of R1-R3; for SGF stability, Residual peptide: single replicates R1-R3; for remaining at 8 h: simulated gi fluid, 37 °C, pH 1.2, read-out: Proteolytic stability: SGF (8 h) % remaining
T1 construct: 0.32 g of porcine pepsin (Sigma-Aldrich, P7125) was dissolved under gentle agitation; purchased Sigma-Aldrich P7125
T1 sequence (P00791 60-385): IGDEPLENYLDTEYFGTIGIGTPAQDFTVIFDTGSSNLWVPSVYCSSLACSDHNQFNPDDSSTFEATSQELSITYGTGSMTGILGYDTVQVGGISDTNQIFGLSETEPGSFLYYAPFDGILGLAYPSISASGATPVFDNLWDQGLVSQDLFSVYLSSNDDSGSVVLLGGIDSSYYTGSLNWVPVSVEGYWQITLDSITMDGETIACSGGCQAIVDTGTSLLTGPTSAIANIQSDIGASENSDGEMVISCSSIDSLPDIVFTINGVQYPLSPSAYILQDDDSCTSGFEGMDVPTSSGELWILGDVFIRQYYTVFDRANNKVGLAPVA
In short: (§1)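 Peptide from a 1 mM DMSO stock was added to fluid pre-warmed at 37 °C. SGF was pH 1.2 NaCl with porcine pepsin (0.32 g per 100 ml), and SIF was pH 6.8 potassium phosphate with porcine pancreatin (1 g per 100 ml). Supernatant peptide was quantified by LC–MS, with residual expressed as T1/T0.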

human α-thrombin = human α-thrombin (Homo sapiens, UniProt P00734); assay: Protease inhibition, Ki for human α-thrombin (fluorogenic substrate Z-Gly-Gly-Arg-AMC); format: biochemical; settings: replicates R1-R3
In short: (§2)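 Ki derived through Cheng–Prusoff from IC50s (four-parameter logistic fit) against activity of peptide-free controls. Product fluorescence was read every 3 min over 30 min at 25 °C, substrate Z-Gly-Gly-Arg-AMC at 50 μM. Enzyme was 2 nM human or 3 nM rat α-thrombin, pH 7.4 buffer.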

rat α-thrombin = target: T2, rat α-thrombin (Rattus norvegicus, UniProt P18292); assay: Protease inhibition, Ki for rat α-thrombin (fluorogenic substrate Z-Gly-Gly-Arg-AMC); format: biochemical; settings: replicates R1-R3
T2 construct: rat α-thrombin (Molecular Innovations) were used at final concentrations of 2 nM and 3 nM; purchased Molecular Innovations
In short: as §2

[1] = Peptide stability in simulated intestinal fluid (SIF); format: in vitro ADME, porcine; settings: simulated gi fluid; 8 h, 37 °C, pH 6.8; read-out: Proteolytic stability: SIF (8 h) % remaining
In short: as §1

porcine pancreatin = assay: as above; format: in vitro ADME; settings: after 8 h vs 0 h (TIC); for SIF stability, Residual peptide Average: average of R1-R3; for SIF stability, Residual peptide: single replicates R1-R3
In short: as §1

[2] = Metabolic stability in rat liver microsomes (RLMs); settings: rat, microsomes
[3] = Passive artificial membrane permeability (PAMPA); settings: for PAMPA permeability: % permeability: 50 μM, 12–18 h, acceptor concentration relative to equilibrium; for Papp at 50 μM / Permeability% Average / Permeability% R1 / Permeability% R3: PAMPA; for Papp at 50 μM: pH 7.4; for Permeability% Average: average of R1-R3; for Permeability% R1: replicate R1; for Permeability% R1 / Permeability% R3: TIC of top well sample relative to sample at theoretical equilibrium; for Permeability% R3: replicate R3
[4] = peptide 1.33E+02 uM, slope of proteolytic substrate cleavage over time
[5] = CL (ul/min/mg protein) R1, RLM CL, replicate R1
[6] = CL (ul/min/mg protein) R2, RLM CL, replicate R2
[7] = CL (ul/min/mg protein) R3, RLM CL, replicate R3
[8] = Half Life (min) R1, RLM metabolic stability, replicate R1, 0-60 min
[9] = Half Life (min) R2, RLM metabolic stability, replicate R2, 0-60 min
[10] = Half Life (min) R3, RLM metabolic stability, replicate R3, 0-60 min
[11] = Metabolic stability: Half life T1/2 (min), RLMs, mean and SD, three measurements
[12] = Metabolic stability: RLM CL (ul/min/mg), RLMs, mean and SD, three measurements

O=C1NCCSCc2cccc(n2)CSC[C@H](NC(=O)c2ccc(Cl)s2)C(=O)N[C@@H](CO)C(=O)NCc2ccc1cc2 [compound 25]
SGF stability, Residual peptide Average (porcine pepsin): 101.05 | SGF stability, Residual peptide (porcine pepsin): 110.75 and 95.01 and 97.38 | remaining at 8 h (porcine pepsin): 101 ± 8% | Human alpha thrombin inhibition, slope normalized to DMSO (human α-thrombin; peptide 1.02E-03 uM): 94.7 and 95.3 and 98.5 | Human alpha thrombin inhibition, slope normalized to DMSO (human α-thrombin; peptide 1.04E+00 uM): 75.5 and 74.4 and 76.2 | Human alpha thrombin inhibition, slope normalized to DMSO (human α-thrombin; peptide 1.27E-04 uM): 97.4 and 68.3 and 98.0 | Human alpha thrombin inhibition, slope normalized to DMSO (human α-thrombin; peptide 1.30E-01 uM): 93.0 and 91.1 and 92.8 | Human alpha thrombin inhibition, slope normalized to DMSO (human α-thrombin; [4]): 13.5 and 15.1 and 12.6 | Human alpha thrombin inhibition, slope normalized to DMSO (human α-thrombin; peptide 1.63E-02 uM): 97.4 and 90.6 and 97.7 | Human alpha thrombin inhibition, slope normalized to DMSO (human α-thrombin; peptide 1.67E+01 uM): 26.1 and 29.0 and 29.2 | Human alpha thrombin inhibition, slope normalized to DMSO (human α-thrombin; peptide 2.03E-03 uM): 98.6 and 102.5 and 100.6 | Human alpha thrombin inhibition, slope normalized to DMSO (human α-thrombin; peptide 2.08E+00 uM): 73.0 and 60.5 and 66.8 | Human alpha thrombin inhibition, slope normalized to DMSO (human α-thrombin; peptide 2.54E-04 uM): 97.8 and 93.6 and 92.8 | Human alpha thrombin inhibition, slope normalized to DMSO (human α-thrombin; peptide 2.60E-01 uM): 88.6 and 90.7 and 89.6 | Human alpha thrombin inhibition, slope normalized to DMSO (human α-thrombin; peptide 3.18E-05 uM): 97.1 and 94.4 and 99.6 | Human alpha thrombin inhibition, slope normalized to DMSO (human α-thrombin; peptide 3.26E-02 uM): 101.4 and 92.5 and 97.5 | Human alpha thrombin inhibition, slope normalized to DMSO (human α-thrombin; peptide 3.33E+01 uM): 14.8 and 16.8 and 15.8 | Human alpha thrombin inhibition, slope normalized to DMSO (human α-thrombin; peptide 4.07E-03 uM): 99.3 and 94.9 and 93.4 | Human alpha thrombin inhibition, slope normalized to DMSO (human α-thrombin; peptide 4.17E+00 uM): 57.1 (2×) and 55.7 | Human alpha thrombin inhibition, slope normalized to DMSO (human α-thrombin; peptide 5.09E-04 uM): 99.4 and 94.7 and 120.6 | Human alpha thrombin inhibition, slope normalized to DMSO (human α-thrombin; peptide 5.21E-01 uM): 84.0 and 81.7 and 83.0 | Human alpha thrombin inhibition, slope normalized to DMSO (human α-thrombin; peptide 6.36E-05 uM): 93.6 and 95.3 and 99.3 | Human alpha thrombin inhibition, slope normalized to DMSO (human α-thrombin; peptide 6.51E-02 uM): 95.9 and 74.7 and 94.1 | Human alpha thrombin inhibition, slope normalized to DMSO (human α-thrombin; peptide 6.67E+01 uM): 13.4 and 15.6 and 21.8 | Human alpha thrombin inhibition, slope normalized to DMSO (human α-thrombin; peptide 8.14E-03 uM): 96.7 and 95.4 and 97.4 | Human alpha thrombin inhibition, slope normalized to DMSO (human α-thrombin; peptide 8.33E+00 uM): 44.0 and 41.9 and 43.6 | Rat alpha thrombin inhibition, slope normalized to DMSO (rat α-thrombin; [4]): 3.8 and 4.8 and 16.3 | Rat alpha thrombin inhibition, slope normalized to DMSO (rat α-thrombin; peptide 1.67E+01 uM): 8.5 and 7.5 and 19.4 | Rat alpha thrombin inhibition, slope normalized to DMSO (rat α-thrombin; peptide 2.08E+00 uM): 35.4 and 36.0 and 40.9 | Rat alpha thrombin inhibition, slope normalized to DMSO (rat α-thrombin; peptide 3.33E+01 uM): 4.1 and 4.6 and 17.1 | Rat alpha thrombin inhibition, slope normalized to DMSO (rat α-thrombin; peptide 4.17E+00 uM): 23.4 and 23.3 and 26.8 | Rat alpha thrombin inhibition, slope normalized to DMSO (rat α-thrombin; peptide 6.67E+01 uM): 3.8 and 4.6 and 15.5 | Rat alpha thrombin inhibition, slope normalized to DMSO (rat α-thrombin; peptide 8.33E+00 uM): 13.7 and 14.0 and 21.8 | remaining at 8 h [1]: 93 ± 9% | SIF stability, Residual peptide Average (porcine pancreatin): 93.12 | SIF stability, Residual peptide (porcine pancreatin): 102.84 and 84.15 and 92.36 | microsomal CLint [2, 5]: 99.1 µL/min/mg | microsomal CLint [2, 6]: 76.5 µL/min/mg | microsomal CLint [2, 7]: 112 µL/min/mg | half-life [2, 8]: 14 min | half-life [2, 9]: 18.1 min | half-life [2, 10]: 12.4 min | half-life [2, 11]: 14.8 ± 2.4 min | microsomal CLint [2, 12]: 96 ± 15 µL/min/mg | PAMPA permeability: % permeability [3]: 0.62 ± 0.14% | Papp at 50 μM [3]: 0.0407 ×10⁻⁶ cm/s | Permeability% Average [3]: 0.6% | Permeability% R1 [3]: 0.77% | Permeability% R3 [3]: 0.57%

C[C@@H]1NC(=O)[C@@H](NC(=O)c2ccc(Cl)s2)CSCc2cccc(n2)CSCCNC(=O)c2ccc(cc2)CNC1=O [compound 26]
SGF stability, Residual peptide Average (porcine pepsin): 97.08 | SGF stability, Residual peptide (porcine pepsin): 97.29 and 98.54 and 95.42 | remaining at 8 h (porcine pepsin): 97 ± 2% | Human alpha thrombin inhibition, slope normalized to DMSO (human α-thrombin; peptide 1.02E-03 uM): 99.9 and 93.8 and 93.5 | Human alpha thrombin inhibition, slope normalized to DMSO (human α-thrombin; peptide 1.04E+00 uM): 74.0 and 69.6 and 63.3 | Human alpha thrombin inhibition, slope normalized to DMSO (human α-thrombin; peptide 1.27E-04 uM): 95.9 and 97.1 and 89.9 | Human alpha thrombin inhibition, slope normalized to DMSO (human α-thrombin; peptide 1.30E-01 uM): 97.4 and 88.7 and 84.7 | Human alpha thrombin inhibition, slope normalized to DMSO (human α-thrombin; [4]): 48.0 and 48.9 and 38.9 | Human alpha thrombin inhibition, slope normalized to DMSO (human α-thrombin; peptide 1.63E-02 uM): 100.4 and 97.8 and 90.3 | Human alpha thrombin inhibition, slope normalized to DMSO (human α-thrombin; peptide 1.67E+01 uM): 53.6 and 73.4 and 36.5 | Human alpha thrombin inhibition, slope normalized to DMSO (human α-thrombin; peptide 2.03E-03 uM): 104.9 and 96.2 and 90.3 | Human alpha thrombin inhibition, slope normalized to DMSO (human α-thrombin; peptide 2.08E+00 uM): 55.5 and 68.9 and 56.1 | Human alpha thrombin inhibition, slope normalized to DMSO (human α-thrombin; peptide 2.54E-04 uM): 98.8 and 99.4 and 90.5 | Human alpha thrombin inhibition, slope normalized to DMSO (human α-thrombin; peptide 2.60E-01 uM): 80.8 and 89.0 and 86.0 | Human alpha thrombin inhibition, slope normalized to DMSO (human α-thrombin; peptide 3.18E-05 uM): 84.7 and 96.5 and 92.2 | Human alpha thrombin inhibition, slope normalized to DMSO (human α-thrombin; peptide 3.26E-02 uM): 93.0 and 90.7 and 88.1 | Human alpha thrombin inhibition, slope normalized to DMSO (human α-thrombin; peptide 3.33E+01 uM): 66.3 and 62.6 and 52.3 | Human alpha thrombin inhibition, slope normalized to DMSO (human α-thrombin; peptide 4.07E-03 uM): 103.1 and 97.8 and 89.7 | Human alpha thrombin inhibition, slope normalized to DMSO (human α-thrombin; peptide 4.17E+00 uM): 60.4 and 78.0 and 53.8 | Human alpha thrombin inhibition, slope normalized to DMSO (human α-thrombin; peptide 5.09E-04 uM): 103.6 and 97.9 and 97.0 | Human alpha thrombin inhibition, slope normalized to DMSO (human α-thrombin; peptide 5.21E-01 uM): 81.6 and 82.6 and 73.0 | Human alpha thrombin inhibition, slope normalized to DMSO (human α-thrombin; peptide 6.36E-05 uM): 100.1 and 99.2 and 93.6 | Human alpha thrombin inhibition, slope normalized to DMSO (human α-thrombin; peptide 6.51E-02 uM): 92.5 and 99.9 and 84.8 | Human alpha thrombin inhibition, slope normalized to DMSO (human α-thrombin; peptide 6.67E+01 uM): 54.4 and 57.2 and 52.4 | Human alpha thrombin inhibition, slope normalized to DMSO (human α-thrombin; peptide 8.14E-03 uM): 104.4 and 96.4 and 91.9 | Human alpha thrombin inhibition, slope normalized to DMSO (human α-thrombin; peptide 8.33E+00 uM): 36.8 and 64.2 and 38.3 | Rat alpha thrombin inhibition, slope normalized to DMSO (rat α-thrombin; [4]): 14.8 and 14.9 and 15.8 | Rat alpha thrombin inhibition, slope normalized to DMSO (rat α-thrombin; peptide 1.67E+01 uM): 13.6 and 25.5 and 34.3 | Rat alpha thrombin inhibition, slope normalized to DMSO (rat α-thrombin; peptide 2.08E+00 uM): 26.5 and 27.8 and 27.7 | Rat alpha thrombin inhibition, slope normalized to DMSO (rat α-thrombin; peptide 3.33E+01 uM): 22.7 and 27.1 and 25.7 | Rat alpha thrombin inhibition, slope normalized to DMSO (rat α-thrombin; peptide 4.17E+00 uM): 20.6 (2×) and 20.4 | Rat alpha thrombin inhibition, slope normalized to DMSO (rat α-thrombin; peptide 6.67E+01 uM): 19.9 and 22.5 and 21.1 | Rat alpha thrombin inhibition, slope normalized to DMSO (rat α-thrombin; peptide 8.33E+00 uM): 13.5 and 20.1 and 24.1 | remaining at 8 h [1]: 88 ± 5% | SIF stability, Residual peptide Average (porcine pancreatin): 88.29 | SIF stability, Residual peptide (porcine pancreatin): 90.18 and 82.19 and 92.51 | microsomal CLint [2, 5]: 73.3 µL/min/mg | microsomal CLint [2, 6]: 121 µL/min/mg | microsomal CLint [2, 7]: 129 µL/min/mg | half-life [2, 8]: 18.9 min | half-life [2, 9]: 11.4 min | half-life [2, 10]: 10.8 min | half-life [2, 11]: 13.7 ± 3.7 min | microsomal CLint [2, 12]: 108 ± 25 µL/min/mg | PAMPA permeability: % permeability [3]: 4.3 ± 1.6% | Papp at 50 μM [3]: 0.275 ×10⁻⁶ cm/s | Permeability% Average [3]: 4.3% | Permeability% R1 [3]: 2.49% | Permeability% R3 [3]: 5.45%
